Results as given in PMC6934184, “Selective DNA-PKcs inhibition extends the therapeutic index of localized radiotherapy and chemotherapy” (The Journal of Clinical Investigation, 2019).

Columns and labels:
[1] = system: lung; experiment: radiation-induced lung fibrosis, Masson's trichrome, modified Ashcroft score; format: in vivo, C57BL/6 mice; settings: 30 mg/kg oral 30 min before and 5 h after each of 4 × 5 Gy; 24 weeks
Procedure: Whole-thorax irradiation (5 Gy) was administered to female C57BL/6 mice (6–8 weeks old) on days 1, 4, 7, and 10 with vehicle or NU5455 treatment. Whole lung sections were stained with Masson’s trichrome to visualize collagen deposition and scored using the modified Ashcroft scale proposed by Hübner et al. ([55]). Further details are provided in Supplemental Methods. […]
combined with 10 Gy thorax irradiation ( n = 6 - 7/group). For whole-thorax irradiation, anaesthetized mice were placed in the supine position in a customized rig. The whole thorax was exposed to X-ray radiation generated by the Gulmay Medical RS320 irradiation system (2.034 Gy/minute). The rest of the body was protected by lead shields. […]
Tumor growth in the remaining mice was monitored by bioluminescent imaging on days 0, 4, 8 and 15 post-treatment. […] Data were analyzed using LivingImage software (PerkinElmer). […]
(§1) Tissues were fixed in 4% paraformaldehyde (PFA) and paraffin -embedded. […] One tissue section from each of 3 mice per group was examined, and the whole section (excluding necrotic areas) analyzed using ImageScope analysis software (Aperio Technologies). γH2AX and 53BP1 foci were manually counted in 200 nuclei from each tumor sample. The percentage of γH2AX and 53BP1 positive nuclei in lung epithelial cells was quantified manually in normal lung samples across 5 randomly-chosen fields of view per […]

[2] = system: MCF7 cells; experiment: γH2AX foci nuclear fluorescence after 2.5 Gy; format: cell-based, Human; settings: 1 μM, 0–24 hours after irradiation
Procedure: Cell line γH2AX and 53BP1 foci immunofluorescence and quantitation
Cells grown on coverslips or in 96-well plates were treated with 1 or 5 µM NU5455 or DMSO 1 hour prior to irradiation (0, 2.5 or 10 Gy) using an RS 320 X-ray Research System (Gulmay Medical). At set timepoints (15 or 30 minutes, or 1, 4, 5, 6, or 24 hours post-irradiation), cells were washed and fixed in methanol or 3% paraformaldehyde (PFA). Cells were blocked and permeabilized in 1% (v/v) goat serum/1% (w/v) BSA/0.1% (v/v) Triton X100 or 0.1% (v/v) Triton X100 containing 10% (w/v) dried milk powder and 2% (w/v) bovine serum albumin, followed by incubation with antibodies against γH2AX (JBW301, Millipore #05-636) and/or 53BP1 (Cell Signaling #4937). Cells were then washed and incubated with Alexa Fluor 488 goat anti-mouse and/or Alexa Fluor 568 goat anti -rabbit antibodies (A11001 or A11011 respectively, Invitrogen). In A549 and Calu-6, cells were Hoechst stained (5 µg/ml), and the average numbers of γH2AX and 53BP1 foci per cell were quantified from 400 nuclei per sample using an In Cell analyzer 1000 (GE Healthcare). For MCF7 cells, coverslips were mounted using Vectashield mounting medium with DAPI (Vector Labs) and imaged using a Leica TCS SPE confocal fluorescence microscope. Total fluorescence intensity was determined using ImagePro Plus 5.0 software (Media Cybernetics).
Clonogenic survival assays […]

[3] = system: normal lung tissue; experiment: γH2AX-positive cells in normal lung after thoracic irradiation; format: in vivo, mouse; settings: 24 hours after 10 Gy; NU5455 30 mg/kg oral
Procedure: combined with 10 Gy thorax irradiation ( n = 6 - 7/group). For whole-thorax irradiation, anaesthetized mice were placed in the supine position in a customized rig. The whole thorax was exposed to X-ray radiation generated by the Gulmay Medical RS320 irradiation system (2.034 Gy/minute). The rest of the body was protected by lead shields. Three mice fr om each treatment group were humanely killed 24 h ours after irradiation, and their tumors processed to permit immunohistochemical analysis .
Tumor growth in the remaining mice was monitored by bioluminescent imaging on days 0, 4, 8 and 15 post-treatment. Mice were injected with luciferin (150 mg/kg i.p., Santa Cruz Biotechnology) and bioluminescence images were acquired using the IVIS Spectrum (PerkinElmer) at 5 minute intervals until maximum light was collected. […] Data were analyzed using LivingImage software (PerkinElmer). […]
as §1

[4] = system: HCT116 parental cells; experiment: caspase activity after irradiation; format: cell-based, Human; settings: 1 µM, 1 hour prior to 2 Gy; 72 hours
Procedure: (§2) Supplemental Figure 19. […] Fold […]
(§3) caspase activity in HCT116 parental and p53 null (-/-) cells 72 hours following pre-treatment with NU5455 (1 µM) or DMSO for 1 hour prior to irradiation (0 or 2 Gy). Fold caspase activity was normalized to cell density determined by SRB staining. Data represent the mean ± SEM from three independent experiments. NS = not significant, **** P < 0.0001 (2-way ANOVA).

[5] = system: HCT116 p53 null (-/-) cells; experiment: caspase activity after irradiation; format: cell-based, Human; settings: 1 µM, 1 hour prior to 2 Gy; 72 hours
Procedure: as §2, §3

CN(C(=O)CN1CCOCC1)c1ccc2sc3c(-c4cccc5c(=O)cc(N6CC7CCC(C6)O7)oc45)cccc3c2c1 [NU5455]
radiation-induced lung fibrosis [1]: did not exacerbate radiation-induced lung fibrosis
number of γH2AX foci [2]: remained elevated even at 24 hours
number of γH2AX-positive cells in normal lung [3]: unaffected by NU5455 administration
radiation-induced apoptosis (fold caspase activity) [4]: increases radiation-induced apoptosis
radiation-induced apoptosis (fold caspase activity) [5]: increases radiation-induced apoptosis
